# Assay results as given in patent US10973815B2, “Delta opioid agonist mu opioid antagonist compositions and methods for treating Parkinsons disease” (priority 2016, dated 2021).
# Legend:
# [1] = system: unilateral 6-OHDA-lesioned Rats; test: Postural asymmetry and dyskinesia (AIMs) on repeated dosing in unilateral 6-OHDA-lesioned rats; assay type: in vivo, rat; settings: 6 mg/kg i.p. daily for 15 days
# [2] = system: MPTP-lesioned cynomolgus macaques; test: Acute DPI-289 in combination with low-dose L-DOPA, versus high-dose L-DOPA, in MPTP-lesioned macaques with L-DOPA-induced dyskinesia; assay type: in vivo, Macaca fascicularis; settings: high dose L-DOPA alone (about 30 to 31 mg/kg)
# Description: This study utilized female MPTP-lesioned cynomolgus macaques that have received chronic repeat-treatment with L-DOPA and manifested stable and reproducible dyskinesia, of choreic and dystonic nature, in response to subsequent L-DOPA-treatments. Eight cynomolgus monkeys (Macaca fascicularis, 7.6-13.1 years of age, 3.0-4.5 kg) were used in this study. In a prior experiment, for each individual animal a low and high dose of L-DOPA was established such that the low dose (LD1) provided modest anti-parkinsonian action (1-2 h) and elicited predominantly non-disabling dyskinesia, the high dose (LDh) provided the best anti-parkinsonian effect achievable but also elicited disabling dyskinesia and an anti-parkinsonian benefit of 2-3 h duration
# The behavioral effects of acute DPI-289 administered in combination with low-dose L-DOPA (LD1) were assessed. Also higher dose of L-DOPA was also assessed without the addition of DPI-289. The low dose (LD1) was about 10 to 11 mg/kg of L-DOPA which is considered to be sub-optimal in terms of anti-parkinsonian benefit. The dose of DPI-289 was 20 mg/kg and the high dose of L-DOPA was about 30 to 31 mg/kg and considered to an optimal does in terms of anti-parkinsonian benefit but with disabling dyskinesia. The DPI-289 was administered one (1) hour prior to the L-DOPA and start of observation. Activity counts were collected and parkinsonian disability and dyskinesia was assessed via post-hoc analysis of video-recordings by a movement disorder neurologist blinded to treatment.
# On the day before behavioral observations, food was removed overnight, from 5 p.m. On days of behavioral assessment, treatment was administered to the animals in their home cage at approximately 9 a.m. A 6 h period of observation then commenced 1 h after oral dosing.
# The animals were rendered parkinsonian by once daily subcutaneous injection of 0.2 mg/kg MPTP, administered for 8-12 days, until the first appearance of parkinsonism symptoms. After this time, a parkinsonian syndrome reached a moderate to marked level, over approximately 30 days, and stabilized. Additional administrations of MPTP were given to some animals to titrate to similar degrees of parkinsonism in individuals across the group. […] Sixty days after commencing MPTP administration, L-DOPA (25 mg/kg) was administered orally twice daily for at least two months. L-DOPA was given with the decarboxylase inhibitor benserazide (as Madopar™). This treatment leads to the development of motor fluctuations, including dyskinesia.
# rats = settings: cited from earlier work
# MPTP-treated marmosets = settings: similar dose levels (10 mg/kg); cited from earlier work
# [3] = system: rats treated with reserpine or dopamine receptor antagonists (haloperidol or SCH23390); settings: 10 mg/kg i.p.; cited from earlier work
# mice = settings: cited from earlier work
# [4] = system: MPTP-lesioned primate (marmosets) model of Parkinson's disease; settings: 10 mg/kg i.p.; without attenuation of the anti-parkinsonian actions of L-DOPA; cited from earlier work
smiles,measurement,setting,value
"N[C@@H](Cc1ccc(O)c(O)c1)C(=O)O [L-DOPA, reference compound]",postural asymmetry,[1],reduced or reversed the postural asymmetry
same,dyskinesia,[2],severe dyskinesia in the first three hours after dosage
same,parkinsonian disability,[2],parkinsonian disability increased in the last four to six hours
C=CCN1C[C@H](C)N([C@H](c2ccc(C(=O)N(CC)CC)cc2)c2cccc(OC)c2)C[C@H]1C [SNC80],convulsions,rats,seizure-like convulsions
same,"motor activity, bradykinesia and disability scores",MPTP-treated marmosets,"restored motor activity, bradykinesia and disability scores to normal"
same,parkinsonian posture,MPTP-treated marmosets,not statistically reversed
same,"behavioral deficits (ambulatory behavior, grooming, rearing, social interaction and exploration, static investigation)",[3],restored behavioral deficits
same,convulsions,mice,seizure-like convulsions
COc1cccc2c1[C@]13CCN(CC4CC4)[C@H](C2)[C@]1(OC)CCC(=O)C3 [cyprodime],L-DOPA-induced dyskinesia,[4],reduce completely L-DOPA-induced dyskinesia
